Here are results for 33 compounds from US9034882B2, “Inhibitors of human immunodeficiency virus replication” (priority 2012, dated 2015).

The experiment has as its system recombinant NL-Rluc virus. Put plainly: Inhibition of HIV replication (NL-RLuc luciferase reporter virus in MT-2 cells). In kind it is cell-based. In general terms: A reporter such as luciferase makes a cellular process visible.
The mark [1] stands for this setting: Human immunodeficiency virus 1, MT2, 120 h, read-out: Activity.
Where [2] appears, read: Human immunodeficiency virus 1, MT2, 120 h, read-out: EC50 μM.

Where two headings read alike, the source gives them in different places. Where only a bound is given, the exact number is not on record here.

On to `Cc1ccccc1-c1cccc(-c2cc3nc(C)c([C@H](OC(C)(C)C)C(=O)O)c(N4CCC(C)(C)CC4)n3n2)c1` [Example 58, (S)-2-(tert-Butoxy)-2-(7-(4,4-dimethylpiperidin-1-yl)-5-methyl-2-(2′-methyl-[1,1′-biphenyl]-3-yl)pyrazolo[1,5-a]pyrimidin-6-yl)acetic acid], for which the EC50 under setting [1] was less than 0.1 µM.
Consider `Cc1nc2cc(-c3cccc(-c4ccccc4)c3)nn2c(N2[C@@H]3CC[C@H]2COC3)c1[C@H](OC(C)(C)C)C(=O)O` [Example 45, (S)-2-(2-([1,1′-Biphenyl]-3-yl)-7-((1R,5S)-3-oxa-8-azabicyclo[3.2.1]octan-8-yl)-5-methylpyrazolo[1,5-a]pyrimidin-6-yl)-2-(tert-butoxy)acetic acid], for which the EC50 reads like this: under setting [1], greater than 1 µM; under setting [2], 3.14 µM.
Turning to `Cc1nc2nc(-c3cccc(-c4ccccc4)c3)nn2c(N2CCC(C)(C)CC2)c1[C@H](OC(C)(C)C)C(=O)O` [Example 42, (S)-2-(2-([1,1′-Biphenyl]-3-yl)-7-(4,4-dimethylpiperidin-1-yl)-5-methyl-[1,2,4]triazolo[1,5-a]pyrimidin-6-yl)-2-(tert-butoxy)acetic acid], the EC50 runs as follows: under setting [1], less than 0.1 µM; under setting [2], 0.05 µM.
Consider `Cc1nc2cc(-c3ccccc3)nn2c(N2CCC(C(C)(C)C)CC2)c1C(OC(C)(C)C)C(=O)O` (centres unmarked) [Example 17], for which the EC50 under setting [1] is greater than 1 µM.
Consider `Cc1nc2cc(-c3cccc(Cc4ccccc4)n3)nn2c(N2CCC(C)(C)CC2)c1[C@H](OC(C)(C)C)C(=O)O` [Example 70, (S)-2-(2-(6-Benzylpyridin-2-yl)-7-(4,4-dimethylpiperidin-1-yl)-5-methylpyrazolo[1,5-a]pyrimidin-6-yl)-2-(tert-butoxy)acetic acid], for which the EC50 under setting [1] lay in the range of 0.1 to 1 µM.
Regarding `Cc1nc2cc(-c3cccc(-c4ccc5cnn(C)c5c4)c3)nn2c(N2CCC3(CC2)CC3)c1[C@H](OC(C)(C)C)C(=O)O` [Example 60, (S)-2-(tert-Butoxy)-2-(5-methyl-2-(3-(1-methyl-1H-indazol-6-yl)phenyl)-7-(6-azaspiro[2.5]octan-6-yl)pyrazolo[1,5-a]pyrimidin-6-yl)acetic acid], the EC50 under setting [1] was less than 0.1 µM.
In the case of `Cc1nc2cc(-c3cccc(Oc4ccccc4)n3)nn2c(N2CCC(C)(C)CC2)c1[C@H](OC(C)(C)C)C(=O)O` [Example 68, (S)-2-(tert-Butoxy)-2-(7-(4,4-dimethylpiperidin-1-yl)-5-methyl-2-(6-phenoxypyridin-2-yl)pyrazolo[1,5-a]pyrimidin-6-yl)acetic acid], the EC50 under setting [1] is 0.1 to 1 µM.
Turning to `Cc1nc2cc(-c3ccccc3)nn2c(N2CCC(C(N)=O)CC2)c1C(OC(C)(C)C)C(=O)O` (centres unmarked) [Example 24], the EC50 under setting [1] is greater than 1 µM.
The same measure, in the same setting: the value for `Cc1nc2cc(-c3cccc(-c4ccccc4)n3)nn2c(N2CCC(C)(C)CC2)c1[C@H](OC(C)(C)C)C(=O)O` [Example 67, (S)-2-(tert-Butoxy)-2-(7-(4,4-dimethylpiperidin-1-yl)-5-methyl-2-(6-phenylpyridin-2-yl)pyrazolo[1,5-a]pyrimidin-6-yl)acetic acid] was 0.1 to 1 µM; that for `Cc1nc2cc(-c3cccc(Oc4ccccc4)c3)nn2c(N2CCC(C)(C)CC2)c1[C@H](OC(C)(C)C)C(=O)O` [Example 66, (S)-2-(tert-Butoxy)-2-(7-(4,4-dimethylpiperidin-1-yl)-5-methyl-2-(3-phenoxyphenyl)pyrazolo[1,5-a]pyrimidin-6-yl)acetic acid] was 0.1 to 1 µM.
Still for that read-out and setting: the value for `Cc1nc2cc(-c3ccccc3)nn2c(N2CCC3(CCCC3)CC2)c1[C@H](OC(C)(C)C)C(=O)O` [Example 27, (S)-2-(tert-butoxy)-2-(5-methyl-2-phenyl-7-(8-azaspiro[4.5]decan-8-yl)pyrazolo[1,5-a]pyrimidin-6-yl) acetic acid] was greater than 1 µM.
With `Cc1nc2cc(-c3ccccc3)nn2c(N2CCCCC2)c1C(OC(C)(C)C)C(=O)O` (centres unmarked) [Example 2, 2-(tert-butoxy)-2-(7-(lpiperidin-1-yl)-5-methyl-2-phenylpyrazolo[1,5a]pyrimidin-6-yl)acetic acid], the EC50 under setting [1] was greater than 1 µM and the EC50 under setting [2] is 5 µM.
`Cc1nc2c(-c3cccc(Cl)c3)cnn2c(N2CCC(C)(C)CC2)c1C(OC(C)(C)C)C(=O)O` (centres unmarked) [Example 36, 2-(tert-butoxy)-2-(3-(3-chlorophenyl)-7-(4,4-dimethylpiperidin-1-yl)-5-pyrazolo[1,5a]pyrimidin-6-yl)acetic acid]: the EC50 under setting [1] is 0.1 to 1 µM.
As for `Cc1nc2cc(-c3ccccc3)nn2c(N2CCC3(CCCC3)C2)c1[C@H](OC(C)(C)C)C(=O)O` [Example 26, (S)-2-(tert-butoxy)-2-(5-methyl-2-phenyl-7-(2-azaspiro[4.4]nonan-2-yl)pyrazolo[1,5-a]pyrimidin-6-yl)acetic acid], the EC50 under setting [1] is 0.1 to 1 µM and the EC50 under setting [2] amounted to 0.3 µM.
For `Cc1nc2cc(-c3ccccc3)nn2c(N2CCC(C)(C)CC2)c1C(OC(C)(C)C)C(=O)O` (centres unmarked) [Example 1, 2-(tert-butoxy)-2-(7-(4,4-dimethylpiperidin-1-yl)-5-methyl-2-phenylpyrazolo[1,5a]pyrimidin-6-yl)acetic acid], the EC50 was 0.1 to 1 µM under setting [1] and 0.55 µM under setting [2].
For the compound `CCC1(C)CCN(c2c([C@H](OC(C)(C)C)C(=O)O)c(C)nc3cc(-c4ccccc4)nn23)CC1` [Example 29, (S)-2-(tert-butoxy)-2-(7-(4-ethyl-4-methylpiperidin-1-yl)-5-methyl-2-phenylpyrazolo[1,5-a]pyrimidin-6-yl)acetic acid], under setting [1], the EC50 was 0.1 to 1 µM.
Same read-out and setting: the value for `Cc1nc2cc(-c3cccc(-c4ccccc4)c3)nn2c(N2CCC3(C)CC3C2)c1[C@H](OC(C)(C)C)C(=O)O` (stereo partly drawn) [Example 61, (2S)-2-(2-([1,1′-Biphenyl]-3-yl)-5-methyl-7-(6-methyl-3-azabicyclo[4.1.0]heptan-3-yl)pyrazolo[1,5-a]pyrimidin-6-yl)-2-(tert-butoxy)acetic acid] was 0.1 to 1 µM; that for `Cc1nc2cc(-c3ccccc3)nn2c(N2CCC(O)CC2)c1C(OC(C)(C)C)C(=O)O` (centres unmarked) [Example 15] was greater than 1 µM.
With `Cc1nc2cc(-c3ccccc3)nn2c(N2CCC(C(C)C)CC2)c1C(OC(C)(C)C)C(=O)O` (centres unmarked) [Example 16], the EC50 reads like this: under setting [1], 0.1 to 1 µM; under setting [2], 0.77 µM.
Regarding `Cc1nc2cc(-c3ccccc3)nn2c(N2CCCNCC2)c1C(OC(C)(C)C)C(=O)O` (centres unmarked) [Example 4, 2(7-(1,4-diazepan-1-yl)-5-methyl-2-phenylpyrazolo[1,5a]pyrimidin-6-yl)-2-(tert-butoxy)-acetic acid], the EC50 under setting [1] is greater than 1 µM.
Still for that read-out and setting: the value for `Cc1nc2cc(-c3ccccc3)nn2c(N2CCC(C(=O)O)CC2)c1C(OC(C)(C)C)C(=O)O` (centres unmarked) [Example 13] was greater than 1 µM.
Turning to `Cc1nc2cc(-c3cccc(-c4ccccc4)c3)nn2c(N2CCC(C)(C)CC2)c1C(OC(C)(C)C)C(=O)O` (centres unmarked) [Example 35, 2-(2-([1,1′-Biphenyl]-3-yl)-7-(4,4-dimethylpiperidin-1-yl)-5-methylpyrazolo[1,5-a]pyrimidin-6-yl)-2-(tert-butoxy)acetic acid], the EC50 was 0.1 to 1 µM under setting [1] and 0.13 µM under setting [2].
In the case of `Cc1nc2cc(-c3cccc(-c4ccccc4)c3)nn2c(N2CCS(=O)(=O)CC2)c1[C@H](OC(C)(C)C)C(=O)O` [Example 46, (S)-2-(2-([1,1′-Biphenyl]-3-yl)-7-(1,1-dioxidothiomorpholino)-5-methylpyrazolo[1,5-a]pyrimidin-6-yl)-2-(tert-butoxy)acetic acid], the EC50 under setting [1] lay in the range of 0.1 to 1 µM.
In the case of `Cc1nc2cc(-c3cccc(OCc4ccccc4)c3)nn2c(N2CCC(C)CC2)c1C(OC(C)(C)C)C(=O)O` (centres unmarked) [Example 31, 2-(2-(3-(benzyloxy)phenyl)-5-methyl-7-(4-methylpiperidin-1-yl)pyrazolo[1,5-a]pyrimidin-6-yl)20(tert-butoxy)acetic acid], the EC50 under setting [1] is less than 0.1 µM.
Regarding `Cc1nc2cc(-c3ccccc3)nn2c(N2CCCC(C)C2)c1C(OC(C)(C)C)C(=O)O` (centres unmarked) [Example 10], the EC50 under setting [1] was greater than 1 µM.
Still for that read-out and setting: the value for `Cc1nc2nc(-c3ccccc3)nn2c(N2CC[C@H]3CCCC[C@@H]3C2)c1C(OC(C)(C)C)C(=O)O` (stereo partly drawn) [Example 40, 2-(tert-Butoxy)-2-(5-methyl-7-((4aR,8aS)-octahydroisoquinolin-2(1H)-yl)-2-phenyl-[1,2,4]triazolo[1,5-a]pyrimidin-6-yl)acetic acid] was greater than 1 µM; that for `Cc1nc2cc(-c3cccc(-c4ccccc4)c3)nn2c(N2C3CCCC2COC3)c1[C@H](OC(C)(C)C)C(=O)O` [Example 48, (2S)-2-(2-([1,1′-Biphenyl]-3-yl)-7-(3-oxa-9-azabicyclo[3.3.1]nonan-9-yl)-5-methylpyrazolo[1,5-a]pyrimidin-6-yl)-2-(tert-butoxy)acetic acid] was greater than 1 µM.
For the compound `Cc1nc2cc(-c3ccccc3)nn2c(N2CCCCC2C)c1C(OC(C)(C)C)C(=O)O` (centres unmarked) [Example 20], the EC50 (read-out: Activity, MT-2 cells infected with NL-RLuc virus, 5 days of incubation, luciferase readout, serum condition not given) was in the range of 0.1 to 1 µM.
`Cc1nc2cc(-c3ccccc3)nn2c(N2CCN(C)CC2)c1C(OC(C)(C)C)C(=O)O` (centres unmarked) [Example 7, 2-(tert-butoxy)-2-(5-methyl-7(4-methylpiperazin-1-yl)-2-phenylpyrazolo[1,5a]pyrimidin-6-yl)acetic acid]: the EC50 was greater than 1 µM under setting [1] and 5.2 µM under setting [2].
Take `Cc1nc2cc(-c3cc(-c4ccccc4)ccn3)nn2c(N2CCC(C)(C)CC2)c1[C@H](OC(C)(C)C)C(=O)O` [Example 65, (S)-2-(tert-Butoxy)-2-(7-(4,4-dimethylpiperidin-1-yl)-5-methyl-2-(4-phenylpyridin-2-yl)pyrazolo[1,5-a]pyrimidin-6-yl)acetic acid]: the EC50 under setting [1] is 0.1 to 1 µM.
Regarding `Cc1nc2cc(-c3cccc(-c4ccc(F)cc4)c3)nn2c(N2CCC3(CC2)CC3)c1[C@H](OC(C)(C)C)C(=O)O` [Example 54, (S)-2-(tert-Butoxy)-2-(2-(4′-fluoro-[1,1′-biphenyl]-3-yl)-5-methyl-7-(6-azaspiro[2.5]octan-6-yl)pyrazolo[1,5-a]pyrimidin-6-yl)acetic acid], the EC50 under setting [1] is 0.1 to 1 µM.
Turning to `Cc1nc2cc(-c3ccccc3)nn2c(N2CC[C@@H]3CCCC[C@@H]3C2)c1C(OC(C)(C)C)C(=O)O` (some centres unmarked) [Example 14], the EC50 under setting [1] lay within 0.1 to 1 µM.
Consider `COC1CCN(c2c(C(OC(C)(C)C)C(=O)O)c(C)nc3cc(-c4ccccc4)nn23)CC1` (centres unmarked) [Example 11], for which, under setting [1], the EC50 was greater than 1 µM.
